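The compound was tested at five concentrations on cells cultured in 96-well plates, with a 48-hour exposure period. GI50 = concentration required for 50% inhibition of growth.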 Calls of active or inactive are those of the source. Cut-off read from the data, not from the text of the source: active = GI50 up to about 1.1 µM and inactive = higher.
Key:
Assay in all cases: DTP human tumour cell line panel, 48 h
KM12 = system: KM12
CAKI-1 = system: CAKI-1
OVCAR-8 = system: OVCAR-8
T47D = system: T47D
OVCAR-3 = system: OVCAR-3
Hs-578T = system: Hs-578T
ACHN = system: ACHN
786-0 = system: 786-0
TK-10 = system: TK-10
RPMI-8226 = system: RPMI-8226
MOLT-4 = system: MOLT-4
OVCAR-4 = system: OVCAR-4
MDA-MB-231 = system: MDA-MB-231
LOX IMVI = system: LOX IMVI
MDA-N = system: MDA-N
HCT-116 = system: HCT-116
DU-145 = system: DU-145
BT-549 = system: BT-549
SN12C = system: SN12C
SNB-75 = system: SNB-75
NCI/ADR-RES = system: NCI/ADR-RES
SF-295 = system: SF-295
A549 = system: A549
OVCAR-5 = system: OVCAR-5
M14 = system: M14
UACC-62 = system: UACC-62
HL-60 = system: HL-60
HCC 2998 = system: HCC 2998
MDA-MB-435 = system: MDA-MB-435
EKVX = system: EKVX
HOP-92 = system: HOP-92
UO-31 = system: UO-31
NCI-H23 = system: NCI-H23
SF-268 = system: SF-268
Malme-3M = system: Malme-3M
IGROV-1 = system: IGROV-1
SK-MEL-2 = system: SK-MEL-2
SF-539 = system: SF-539
U-251 = system: U-251
SK-OV-3 = system: SK-OV-3
HOP-62 = system: HOP-62
HCT-15 = system: HCT-15
CCRF-CEM = system: CCRF-CEM
SK-MEL-5 = system: SK-MEL-5
MCF7 = system: MCF7
NCI-H226 = system: NCI-H226
COLO 205 = system: COLO 205
SK-MEL-28 = system: SK-MEL-28
SW-620 = system: SW-620
NCI-H522 = system: NCI-H522
SNB-19 = system: SNB-19
HT-29 = system: HT-29
SR = system: SR
PC-3 = system: PC-3
UACC-257 = system: UACC-257
K562 = system: K562
NCI-H460 = system: NCI-H460
A498 = system: A498
RXF 393 = system: RXF 393

Measured: GI50

O=C1NC(N2CCOCC2)=N/C1=C\c1ccccc1
> 100 µM: HCT-15
inactive: KM12 > 100 µM | CAKI-1 > 100 µM | OVCAR-8 > 100 µM | T47D > 100 µM | OVCAR-3 > 100 µM | Hs-578T > 100 µM | ACHN > 100 µM | 786-0 > 100 µM | TK-10 > 100 µM | RPMI-8226 > 100 µM | MOLT-4 > 100 µM | OVCAR-4 > 100 µM | MDA-MB-231 > 100 µM | LOX IMVI > 100 µM | MDA-N > 100 µM | HCT-116 > 100 µM | DU-145 > 100 µM | BT-549 > 100 µM | SN12C > 100 µM | SNB-75 > 100 µM | NCI/ADR-RES > 100 µM | SF-295 > 100 µM | A549 > 100 µM | OVCAR-5 > 100 µM | M14 > 100 µM | UACC-62 > 100 µM | HL-60 > 100 µM | HCC 2998 > 100 µM | MDA-MB-435 > 100 µM | EKVX > 100 µM | HOP-92 > 100 µM | UO-31 > 100 µM | NCI-H23 > 100 µM | SF-268 > 100 µM | Malme-3M > 100 µM | IGROV-1 > 100 µM | SK-MEL-2 > 100 µM | SF-539 > 100 µM | U-251 > 100 µM | SK-OV-3 > 100 µM | HOP-62 > 100 µM | CCRF-CEM > 100 µM | SK-MEL-5 > 100 µM | MCF7 > 100 µM | NCI-H226 > 100 µM | COLO 205 > 100 µM | SK-MEL-28 > 100 µM | SW-620 > 100 µM | NCI-H522 > 100 µM | SNB-19 > 100 µM | HT-29 > 100 µM | SR > 100 µM | PC-3 > 100 µM | UACC-257 > 100 µM

O=C1C(Cl)=C(N2CCOCC2)C(=O)c2c(O)ccc(O)c21
inactive: KM12 1.64 µM | RPMI-8226 1.84 µM | MOLT-4 1.35 µM | DU-145 1.53 µM | SF-295 1.64 µM | A549 1.98 µM | K562 10 µM | HCC 2998 1.67 µM | EKVX 1.46 µM | SF-268 1.36 µM | A498 1.63 µM | SK-OV-3 2.81 µM | NCI-H226 1.83 µM | SNB-19 1.78 µM | SR 1.4 µM
active: CAKI-1 0.433 µM | OVCAR-8 0.368 µM | T47D 0.839 µM | OVCAR-3 0.385 µM | Hs-578T 0.859 µM | ACHN 0.263 µM | 786-0 0.296 µM | TK-10 0.638 µM | OVCAR-4 0.256 µM | MDA-MB-231 0.216 µM | LOX IMVI 0.186 µM | MDA-N 0.176 µM | HCT-116 0.213 µM | BT-549 0.173 µM | SN12C 0.207 µM | SNB-75 0.667 µM | NCI/ADR-RES 0.366 µM | OVCAR-5 0.497 µM | M14 0.182 µM | NCI-H460 0.881 µM | UACC-62 0.729 µM | MDA-MB-435 0.204 µM | HOP-92 0.291 µM | UO-31 0.351 µM | NCI-H23 0.255 µM | Malme-3M 0.223 µM | IGROV-1 0.612 µM | SK-MEL-2 0.288 µM | SF-539 0.486 µM | U-251 0.925 µM | HOP-62 0.853 µM | CCRF-CEM 0.473 µM | SK-MEL-5 0.316 µM | MCF7 0.213 µM | COLO 205 0.19 µM | SK-MEL-28 0.288 µM | SW-620 0.156 µM | NCI-H522 0.286 µM | RXF 393 0.222 µM | HT-29 0.233 µM | PC-3 0.536 µM | UACC-257 0.33 µM
0.155 µM: HCT-15

CC(C)c1cc2c(c(O)c1O)[C@@]1(C(=O)O)CCCC(C)(C)[C@@H]1CC2 [CARNOSIC ACID]
inactive: KM12 14 µM | CAKI-1 27.8 µM | OVCAR-8 15.3 µM | T47D 18.4 µM | OVCAR-3 22.7 µM | Hs-578T 24.1 µM | ACHN 13.4 µM | 786-0 31 µM | TK-10 13.4 µM | RPMI-8226 7.48 µM | MOLT-4 11.8 µM | OVCAR-4 39.5 µM | MDA-MB-231 31.8 µM | LOX IMVI 19.6 µM | MDA-N 32.4 µM | HCT-116 28.7 µM | DU-145 25.1 µM | BT-549 10.5 µM | SN12C 24 µM | SNB-75 17.8 µM | NCI/ADR-RES 15.6 µM | SF-295 22.4 µM | A549 18.2 µM | OVCAR-5 20.8 µM | K562 28.4 µM | NCI-H460 19.9 µM | UACC-62 13.9 µM | HCC 2998 13.2 µM | MDA-MB-435 16.3 µM | EKVX 15.9 µM | HOP-92 6.22 µM | UO-31 14.4 µM | NCI-H23 20 µM | SF-268 18.8 µM | IGROV-1 19.4 µM | SK-MEL-2 18.9 µM | SF-539 18.7 µM | U-251 13.8 µM | SK-OV-3 37.3 µM | HOP-62 27.2 µM | CCRF-CEM 3.18 µM | SK-MEL-5 16.2 µM | MCF7 18.9 µM | NCI-H226 10.4 µM | COLO 205 24.2 µM | SK-MEL-28 13.2 µM | SW-620 31.8 µM | NCI-H522 13 µM | SNB-19 > 10 µM | RXF 393 19.6 µM | HT-29 16.3 µM | SR 5.33 µM | PC-3 15.3 µM | UACC-257 14.6 µM
27.3 µM: HCT-15

— ChEMBL document CHEMBL1201862, “PubChem BioAssay data set” (2004)
